Source: EP0139005A1, “ANTITUMOR COMPOSITION, METHOD FOR TREATING TUMOR, AND USE OF THE COMPOSITION FOR TREATING TUMOR” (Yoshitomi Pharmaceutical Industries, Ltd., priority 1982, dated 1984)

Legend:
IMC carcinoma = IMC carcinoma implanted intraperitoneally, survival (Experimental Example 1); type: in vivo, female CDF1 mice; details: for 30-day Survivors / Average Survival Time / Life-Prolongation Ratio (%): once daily for seven days
Procedure: A plurality of groups each consisting of five heads of female CDF1 mice (7-8 weeks old) were implanted intraperitoneally with 10^6 cells of IMC carcinoma. After 24 hours, Y-6430 was respectively administered once daily for seven days, and average survival times, life-prolongation ratios and 30-day survivors were calculated.
(§1) The life-prolongation ratio was calculated by the following scheme (the same scheme is applied to the subsequent experimental examples).
(§2) Life-prolongation Ratio [formula] T : Average survival days of the treated group
(§3) C : Average survival days of the control group
(§4) Animals survived over 30 days or longer were estimated as 30-day survivors, and the cases where T/C equals to or greater than 125% were regarded as effective.

P388 leukemia = P388 leukemia implanted intraperitoneally, survival (Experimental Example 2); type: in vivo, female CDF1 mice; details: for 30-day Survivors / Average Survival Time / Life-Prolongation Ratio (%): once daily for seven days
Procedure: as §1, §2, §3, §4
A plurality of groups each consisting of five heads of female CDF1 mice (7-8 weeks old) were respectively implanted intraperitoneally with 10^6 cells of P388 leukemia. After 24 hours, Y-6430 and ESCC were respectively administered once daily for seven days, and average survival days, life-prolongation ratios and 30-day survivors in each group were calculated.

L1210 leukemia = L1210 leukemia implanted intraperitoneally, i.p. treatment, survival (Experimental Example 3); type: in vivo, female CDF1 mice; details: for Average Survival Time / Life-Prolongation Ratio (%): once daily for seven days
Procedure: as §1, §2, §3, §4
A plurality of groups each consisting of five heads of female CDF1 mice (8 weeks old) were respectively implanted intraperitoneally with 10 cells of L1210 leukemia. After the next day of the implantation, Y-6430, ESCC and ESCC ethyl ester (hereinafter referred to ESCC-Et) in physiological saline were respectively administered once daily for seven days intraperitoneally, and the average survival days and life-prolongation ratios in each group were calculated.
All the test animals died of tumor within 30 days.

Ehrlich carcinoma = Ehrlich carcinoma implanted intraperitoneally, survival (Experimental Example 6); type: in vivo, male ICR mice; details: once daily for seven days
Procedure: A plurality of groups each consisting of six male ICR mice (7-8 weeks old) were implanted intraperitoneally with 2 x 10^6 Ehrlich carcinoma. After 24 hours, Y-6430 dissolved in physiological saline was administered intraperitoneally once daily for seven days.

AH272 hepatoma = experiment: AH272 hepatoma, survival (Experimental Example 8); type: in vivo, male Donryu rats; details: once daily from third to sixth day, control 7.9 days
Procedure: A plurality of groups each consisting of six male Donryu rats (7-8 weeks old) were implanted with 2 x 10^6 cells of AH272 hepatoma. After the implantation, Y-6430 dissolved in physiological saline was administered intraperitoneally once daily within the period from the third to sixth day, and the average survival days were calculated, the result being shown in Table 9.
All the test animals were dead within 30 days.

sarcoma 180 = experiment: Sarcoma 180 implanted intraperitoneally, survival (Experimental Example 9); type: in vivo, male ICR mice; details: once daily for seven days
Procedure: A plurality of groups each consisting of 12 male ICR mice (6-8 weeks old) were implanted intraperitoneally with 2 x 10^6 cells of sarcoma 180. After the next day to the implantation, Y-6430 was administered intraperitoneally or subcutaneously once daily for seven days.

[1] = tested on: human breast carcinoma MX-1; experiment: Human breast carcinoma MX-1 implanted into kidneys, tumor weight change (Experimental Example 10); type: in vivo, male Swiss nude mice; details: 5th day and 9th day, tumor weight change on 11th day, experiment conducted by National Cancer Institute
Procedure: A plurality of groups each consisting of six male Swiss nude mice as test groups and twelve of them as the control group were implanted into the respective kidneys with human breast carcinoma MX-1. Each of the animals was administered subcutaneously with Y-6430 dissolved in physiological saline on the next day to the implantation, 5th day and 9th day. On llth day, each of the weight of carcinoma was measured, and the tumor weight change (%) of the implanted carcinoma was calculated in accordance with the following scheme.

[2] = Acute toxicity in AH-44 carcinoma bearing rats (Experimental Example 11); details: rat, in vivo, Donryu rats with AH-44 carcinoma cells
Procedure: Acute toxicity value when Y-6430 was administered intraperitoneally to male ddn mice was 1,500 mgjkg or more. 'Acute toxicity values when AH-44 carcinoma cells were implanted peritoneally and orally to Donryu rats were both 1,000 mg/kg or more.

## CCOC(=O)[C@@H](N)CSC(=O)NC.Cl [Y-6430, S-methylcarbamoyl-L-cysteine ethyl ester hydrochloride]
IMC carcinoma; 100 mg/kg/day i.p.
  30-day Survivors: 0/5
  Average Survival Time: 24.0 days
  Life-Prolongation Ratio (%): 218%
IMC carcinoma; 100 mg/kg/day p.o.
  30-day Survivors: 0/5
  Average Survival Time: 12.6 days
  Life-Prolongation Ratio (%): 115%
IMC carcinoma; 250 mg/kg/day i.p.
  30-day Survivors: 1/5
  Average Survival Time: 25.0 days
  Life-Prolongation Ratio (%): 227%
IMC carcinoma; 250 mg/kg/day p.o.
  30-day Survivors: 0/5
  Average Survival Time: 18.2 days
  Life-Prolongation Ratio (%): 165%
IMC carcinoma; 500 mg/kg/day i.p.
  30-day Survivors: 1/5
  Average Survival Time: 27.0 days
  Life-Prolongation Ratio (%): 245%
IMC carcinoma; 500 mg/kg/day p.o.
  30-day Survivors: 0/5
  Average Survival Time: 21.0 days
  Life-Prolongation Ratio (%): 191%
IMC carcinoma; 1,000 mg/kg/day p.o.
  30-day Survivors: 0/5
  Average Survival Time: 23.0 days
  Life-Prolongation Ratio (%): 209%
IMC carcinoma; administered orally or intraperitoneally, T/C equal to or greater than 125% regarded as effective
  effectiveness against IMC carcinoma: effective
P388 leukemia; 100 mg/kg/day i.p.
  30-day Survivors: 0/5
  Average Survival Time: 13.4 days
  Life-Prolongation Ratio (%): 134%
P388 leukemia; 100 mg/kg/day p.o.
  30-day Survivors: 0/5
  Average Survival Time: 11.6 days
  Life-Prolongation Ratio (%): 116%
P388 leukemia; 250 mg/kg/day i.p.
  30-day Survivors: 0/5
  Average Survival Time: 14.6 days
  Life-Prolongation Ratio (%): 146%
P388 leukemia; 250 mg/kg/day p.o.
  30-day Survivors: 0/5
  Average Survival Time: 13.4 days
  Life-Prolongation Ratio (%): 134%
P388 leukemia; 500 mg/kg/day i.p.
  30-day Survivors: 0/5
  Average Survival Time: 17.2 days
  Life-Prolongation Ratio (%): 172%
P388 leukemia; 500 mg/kg/day p.o.
  30-day Survivors: 0/5
  Average Survival Time: 15.0 days
  Life-Prolongation Ratio (%): 150%
P388 leukemia; 1,000 mg/kg/day p.o.
  30-day Survivors: 0/5
  Average Survival Time: 16.6 days
  Life-Prolongation Ratio (%): 166%
P388 leukemia; summary of Tables 2 and 3, T/C equal to or greater than 125% regarded as effective
  effectiveness against P388 leukemia: effective
L1210 leukemia; 50 mg/kg/day i.p.
  Average Survival Time: 8.4 days
  Life-Prolongation Ratio (%): 105%
L1210 leukemia; 100 mg/kg/day i.p.
  Average Survival Time: 9.4 days
  Life-Prolongation Ratio (%): 118%
L1210 leukemia; 250 mg/kg/day i.p.
  Average Survival Time: 9.8 days
  Life-Prolongation Ratio (%): 123%
L1210 leukemia; 500 mg/kg/day i.p.
  Average Survival Time: 12.4 days
  Life-Prolongation Ratio (%): 155%
L1210 leukemia; group administered with 500 mg/kg i.p.
  effectiveness against L1210 leukemia: effective
Ehrlich carcinoma; 50 mg/kg/day i.p.
  30-day Survivors: 0/12
  Average Survival Time: 18.6 days
Ehrlich carcinoma; 100 mg/kg/day i.p.
  30-day Survivors: 6/12
  Average Survival Time: 26.0 days
AH272 hepatoma; 100 mg/kg/day i.p.
  Average Survival Time: 10.5 days
AH272 hepatoma; 250 mg/kg/day i.p.
  Average Survival Time: 15.0 days
Sarcoma 180; 50 mg/kg/day i.p.
  30-day Survivors: 0/12
  Average Survival Time: 25.5 days
  Number of Dead Animals: 0/12
Sarcoma 180; 50 mg/kg/day s.c.
  30-day Survivors: 0/12
  Average Survival Time: 21.9 days
  Number of Dead Animals: 0/12
Sarcoma 180; 100 mg/kg/day i.p.
  30-day Survivors: 5/12
  Average Survival Time: 27.7 days
  Number of Dead Animals: 0/12
Sarcoma 180; 100 mg/kg/day s.c.
  30-day Survivors: 0/12
  Average Survival Time: 23.0 days
  Number of Dead Animals: 0/12
[1]; 225 mg/kg s.c. on next day
  Proliferation Ratio (%): -70%
[1]; 450 mg/kg s.c. on next day
  Proliferation Ratio (%): -64%
[1]; 900 mg/kg s.c. on next day
  Proliferation Ratio (%): -65%
[2]; ip, peritoneally
  LD50: ≥ 1000 mg/kg
[2]; po, orally
  LD50: ≥ 1000 mg/kg
